According to patent publication US20240108745A1, “BIOACTIVE SUBSTANCE CONJUGATE, PREPARATION METHOD THEREFOR AND USE THEREOF” (MEDILINK THERAPEUTICS (SUZHOU) CO., LTD., priority 2021, published 2024):
Where two headings read alike, the source gives them in different places.

Experiments:
[1] = human plasma 37° C., ADC 200 μg/mL, A1.9 released from B7H3-ADC-07(DAR8), DXD from B7H3-C1-ADC-21(DAR4)
Method: The appropriate concentration of internal standard stock solution was prepared with DMSO, and then acetonitrile or other reagents were used to prepare the appropriate concentration of the internal standard-containing precipitant.
Incubation of sample: the bacteriostatic agent ProClin was added to the plasma of each genera (human, cynomolgus monkey, ICR mouse) and PBS containing 1% BSA, and the final concentration of ProClin was 0.1%, Sterile operations were adopted. 40 μL working solution of test substance and 360 μL of human plasma were mixed to prepare 200 μg/mL of incubation sample. The plate was sealed with a film, and then incubated at 37° C. under 5% CO2 in an incubator, with a shaking speed of 80 times/mm. At 0 h, 4 h, 24 h, 2 d, 3 d, 7 d, 10 d, 14 d, 17 d, 21 d and 28 d, 20 μL of plasma sample was transferred, to which was added 200 μL of precipitant (containing internal standard), and completely mixed to precipitate the proteins.
All samples were subject to protein precipitating, and then centrifuged to collect the supernatant, which was diluted with water, and analyzed by LC-MS/MS.

HT29 cells = assay: Assay I of bioactive molecules on cell viability in vitro (CCK8); assay type: cell-based; details: Homo sapiens, HT-29, CCK8; read-out: EC50(nM), killing of HT29 cells
Method: (§1) Tumor cells were first cultured; the bioactive molecules of the present disclosure were co-cultured with tumor cells, and then CCK8 reagent (Dojindo Laboratories (Shanghai), Cat: CK04, Lot: JJ744) was added, and the activity of dehydrogenase in mitochondria was detected by reading (detection wavelength 450 nm) on a microplate reader (manufacturer: Molecular Devices, model: SpectraMax M2), to evaluate the inhibitory effect of bioactive molecules on cell proliferation.
(§2) In vitro cell viability assay method: bioactive molecules (12 concentration gradients) were diluted with corresponding assay medium (containing 2% FBS). The tumor cells were digested by conventional methods using trypsin, and cells in tube were collected and counted, then resuspended in the corresponding assay media (containing 2% FBS). The diluted bioactive molecules were added to a 96-well plate, followed by the cells. Then, 20 μL of CCK8 reagent was added to each well, and the reaction was carried out for 4 h, then the plate was read on a microplate reader (detection wavelength was 450 nm). The experimental results are shown in Tables 6.1, 6.2, 6.3, 6.4, and 6.5.

PANC-1 cells = assay: as above; assay type: cell-based; details: Homo sapiens, read-out: EC50(nM), killing of PANC-1 cells
Method: as §1, §2

NCl-H322M cells = assay: as above; assay type: cell-based; details: Homo sapiens, read-out: EC50(nM), killing of NCl-H322M cells
Method: as §1, §2

NCl-H358 cells = assay: as above; assay type: cell-based; details: Homo sapiens, read-out: EC50(nM), killing of NCl-H358 cells
Method: as §1, §2

HCC1806 cells = assay: as above; assay type: cell-based; details: Homo sapiens, HCC1806, 72 h; 7500 cells/well, 3 days; read-out: EC50(nM), killing of HCC1806 cells
Method: as §1, §2

[2] = Tumor tissue distribution of antibody drug conjugates in HT29 xenografts (A1.9 and ADC in plasma/serum and tumor); assay type: in vivo, BALB/c Nude mice; details: BALB/c Nude, mouse, intravenous, 10 mg/kg, HT29 model, read-out: distribution difference of A1.9 in tumors compared with plasma
Method: Human colon cancer HT29 cells were purchased from ATCC. HT29 cells were adherently cultured in a […] culture dish, and the culture conditions were 1640 media containing 10% fetal bovine serum, and the cells were cultured at 37° C. in an incubator containing 5% CO2. When cells were in exponential growth phase, cells were digested with trypsin, harvested, counted, and inoculated.
After adapting to the laboratory environment for 2-5 days, BALB/c Nude mice were subcutaneously inoculated with HT29 cells in the right rib, with an inoculation amount of 5×10^6 cells/mouse and an inoculation volume of 0.2 ml (containing 50% Matrigel). The experiment was carried out when the tumor grew to about 200-300 mm^3.
The tumor tissue pieces were sheared into small size on ice, weighed and transferred to a grinding tube. The tissue homogenate was prepared by grinding them with normal saline solution at 1:5 (w/v); tissue homogenate supernatant was prepared by centrifugation for 10 min at 2˜8° C. and 1800× g, and then stored at −15˜−25° C. for use. Before use, it was taken out and left at 15-25° C., naturally warmed to room temperature, and then used.
For the analysis method of A1.9, refer to Example 6.9. […]

CC[C@@]1(O)C(=O)OCc2c1cc1n(c2=O)Cc2c-1nc1cc3c(cc1c2CCCO)OCO3 [Example A1.9, (S)-7-ethyl-7-hydroxy-14-(3-hydroxypropyl)-10,13-dihydro-11H-[1,3]dioxolo[4,5-g]pyrano[3′,4′:6,7]indolizino[1,2-b]quinolin-8,11(7H)-dione]
Release ratio (%) ([1]; day 0): 0.14% | Release ratio (%) ([1]; day 0.17): 0.10% | Release ratio (%) ([1]; day 1): 0.11% | Release ratio (%) ([1]; day 2): 0.16% | Release ratio (%) ([1]; day 3): 0.14% | Release ratio (%) ([1]; day 7): 0.19% | Release ratio (%) ([1]; day 10): 0.24% | Release ratio (%) ([1]; day 14): 0.35% | Release ratio (%) ([1]; day 17): 0.40% | Release ratio (%) ([1]; day 21): 0.46% | Release ratio (%) ([1]; day 28): 0.82% | EC50 (HT29 cells): 57.5 nM | EC50 (PANC-1 cells): 94.5 nM | EC50 (NCl-H322M cells): 30.4 nM | EC50 (NCl-H358 cells): 60.8 nM | EC50 (HCC1806 cells): 1.9 nM | Kp [2]: ≤ 18
